Measured values from PubChem BioAssay AID1845201 (Molecular Pharmacology Branch, DTP, NCI, 2023).
Where “and” joins values, the source holds several entries; their conditions need not be identical. Equal entries are not always repeated.

Tested on: COR L88 complex tumor spheroid viability
Test: Anticancer human tumor COR L88 cell line growth inhibition;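 note: compound exposure lasted 7 days before viability readout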;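 for viability, T/C: percent of DMSO vehicle-treated spheroids = 100%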
Settings: for viability, T/C: stronger effect = lower value
Excerpt: Multicellular complex tumor spheroid response to DNA repair inhibitors in combination with DNA-damaging drugs
This study explores the anticancer activities of DNA-damaging drugs and inhibitors of DNA damage repair, both as single agents and in combinations. Complex tumor spheroids comprised of malignant cells, endothelial cells and mesenchymal stem cells served as an in vitro model for human solid tumors. This model system incorporates physiologically relevant features and patient-derived or established malignant cell lines with clinically relevant genetic alterations from many tumor types. Twenty-six patient-derived or established malignant cell lines were evaluated representing sarcoma, melanoma, small cell lung cancer (SCLC), non-small cell lung cancer (NSCLC), as well as bladder, ovarian and pancreatic cancers. The concentration ranges selected for each drug and investigational agent were based upon clinically achievable concentrations if the clinical Cmax of the agent was known.
Compounds. The drugs and compounds olaparib (NSC753686), talazoparib (NSC767125), berzosertib (NSC777718), elimusertib (NSC800525), nedisertib (NSC802822), VX-984 (NSC792969), AZD-1390 (NSC803789), temozolomide (NSC362856), topotecan (NSC609699), trabectedin (NSC813783), staurosporine (NSC755774), and gemcitabine (NSC613327) were obtained from the National Cancer Institute (NCI) Developmental Therapeutics Program Chemical Repository. The FDA-approved anticancer drug set is available from the Developmental Therapeutics Program at https://dtp.cancer.gov/organization/dscb/obtaining/available_plates.htm. […] The stock solutions were prepared in dimethyl sulfoxide (DMSO, Sigma-Aldrich, St. Louis, MO, cat. D2650) at 400-fold the tested concentration and stored at -70 degrees C. Prior to their use, the stock solutions were diluted in fresh medium and the final DMSO concentration in the assay was 0.25% (v/v). All drugs and investigational agents were tested over a range starting from a high concentration at or near the clinical Cmax and decreasing in half-log increments. If the clinical Cmax for an agent had not been determined, the highest concentration tested was 10 microM.
Cell Lines. The patient-derived cancer cell (PDC) lines: 156681-154-R-J1-PDC, 283228-195-R-J1-PDC, 287954-098-R-J1-PDC, 292921-168-R-J2-PDC, 349418-098-R-PDC, 425362-245-T-J1-PDC, 556581-035-R-J1-PDC, and BL0293-F563-PDC were received from the NCI Patient-Derived Models Repository (PDMR, https://pdmr.cancer.gov). The established cell lines HS-SY-2 (RRID:CVCL_8719), MPNST, and SYO-1 (RRID:CVCL_7146) were obtained from the Sloan Kettering Institute. The alveolar soft parts sarcoma cell line ASPS-1 (RRID:CVCL_S738) was established at the NCI and grown from internal seed stocks. The following established cell lines were purchased from the American Type Culture Collection (ATCC, Manassas, VA): G-401 (ATCC, cat. CRL-1441, RRID:CVCL_0270), SW982 (ATCC, cat. HTB-93, RRID:CVCL_1734), VA-ES-BJ (ATCC, cat. CRL-2138, RRID:CVCL_1785), NCI-H719 (ATCC, cat. CRL-5837, RRID:CVCL_1582), NCI-H196 (ATCC, cat. CRL-5823, RRID:CVCL_1509), NCI-H841 (ATCC, cat. CRL-5845, RRID:CVCL_1595), NCI-H1618 (ATCC, cat. CRL-5879, RRID:CVCL_1480), NCI-H1876 (ATCC, cat. CRL-5902, RRID:CVCL_1503), DMS 114 (ATCC, cat. CRL-2066; RRID:CVCL_1174), NCI-H211 (ATCC, cat. CRL-5824; RRID:CVCL_1529), and SW 1271 (ATCC, cat. CRL-2177, RRID:CVCL_1716). The small cell lung cancer cell line COR-L88 was purchased from Sigma-Aldrich (cat. 92031917-1VL, RRID:CVCL_1141). The non-small cell lung cancer cell lines NCI-H226 (RRID:CVCL_1544) and NCI-H322M (RRID:CVCL_1557) were established at the NCI and grown from internal seed stocks. Pooled donor human umbilical vein endothelial cells (HUVEC, Lonza, cat. CC-2519) and human mesenchymal stem cells (hMSC, Lonza, cat. PT-2501) were purchased from Lonza (Walkersville, MD).
Cell Culture. All cells were maintained in an incubator at 37 degrees C and 5% CO2 with 95% humidity. […]

[1] = curve of first compound, second compound 30 pM
[2] = curve of first compound, second compound 94.9 pM
[3] = curve of first compound, second compound 0.0003 µM
[4] = curve of first compound, second compound 0.000949 µM
[5] = curve of first compound, second compound 0.003 µM
[6] = second compound 30 pM, first compound 0.00949 µM
[7] = second compound 30 pM, first compound 0.03 µM
[8] = second compound 30 pM, first compound 0.0949 µM
[9] = second compound 30 pM, first compound 0.3 µM
[10] = second compound 30 pM, first compound 0.949 µM
[11] = second compound 30 pM, first compound 3 µM
[12] = second compound 94.9 pM, first compound 0.00949 µM
[13] = second compound 94.9 pM, first compound 0.03 µM
[14] = second compound 94.9 pM, first compound 0.0949 µM
[15] = second compound 94.9 pM, first compound 0.3 µM
[16] = second compound 94.9 pM, first compound 0.949 µM
[17] = second compound 94.9 pM, first compound 3 µM
[18] = second compound 0.0003 µM, first compound 0.00949 µM
[19] = second compound 0.0003 µM, first compound 0.03 µM
[20] = second compound 0.0003 µM, first compound 0.0949 µM
[21] = second compound 0.0003 µM, first compound 0.3 µM
[22] = second compound 0.0003 µM, first compound 0.949 µM
[23] = second compound 0.0003 µM, first compound 3 µM
[24] = second compound 0.000949 µM, first compound 0.00949 µM
[25] = second compound 0.000949 µM, first compound 0.03 µM
[26] = second compound 0.000949 µM, first compound 0.0949 µM
[27] = second compound 0.000949 µM, first compound 0.3 µM
[28] = second compound 0.000949 µM, first compound 0.949 µM
[29] = second compound 0.000949 µM, first compound 3 µM
[30] = second compound 0.003 µM, first compound 0.00949 µM
[31] = second compound 0.003 µM, first compound 0.03 µM
[32] = second compound 0.003 µM, first compound 0.0949 µM
[33] = second compound 0.003 µM, first compound 0.3 µM
[34] = second compound 0.003 µM, first compound 0.949 µM
[35] = second compound 0.003 µM, first compound 3 µM

| SMILES | IC50 [1] [nM] | IC50 [2] [nM] | IC50 [3] [nM] | IC50 [4] [nM] | IC50 [5] [nM] | viability, T/C [6] [%] | viability, T/C [7] [%] | viability, T/C [8] [%] | viability, T/C [9] [%] | viability, T/C [10] [%] | viability, T/C [11] [%] | viability, T/C [12] [%] | viability, T/C [13] [%] | viability, T/C [14] [%] | viability, T/C [15] [%] | viability, T/C [16] [%] | viability, T/C [17] [%] | viability, T/C [18] [%] | viability, T/C [19] [%] | viability, T/C [20] [%] | also measured |
| --- | --- | --- | --- | --- | --- | --- | --- | --- | --- | --- | --- | --- | --- | --- | --- | --- | --- | --- | --- | --- | --- |
| Cc1sc2c(c1C)C(c1ccc(Cl)cc1)=NC(CC(=O)Nc1ccc(O)cc1)c1nnc(C)n1-2 (configuration not stated) + COc1cc2c(cc1O)CCNC21CSC2c3c(OC(C)=O)c(C)c4c(c3C(COC1=O)N1C(O)C3Cc5cc(C)c(OC)c(O)c5C(C21)N3C)OCO4 | 455 | 432 | 464 | 104 | < 9.49 | 92.5 | 90.9 | 101 | 65.3 | 23.6 | 14.8 | 92.6 | 96.5 | 94.2 | 55.3 | 33.5 | 14.1 | 76.1 | 118 | 122 | viability, T/C [21]: 72.6%; viability, T/C [22]: 15.1%; viability, T/C [23]: 3.51%; viability, T/C [24]: 87.4%; viability, T/C [25]: 84.6%; viability, T/C [26]: 54%; viability, T/C [27]: 5.62%; viability, T/C [28]: 1.33%; viability, T/C [29]: 0.42%; viability, T/C [30]: 0.68%; viability, T/C [31]: 0.7%; viability, T/C [32]: 0.6%; viability, T/C [33]: 0.57%; viability, T/C [34]: 0.69%; viability, T/C [35]: 1.49% |
| CNCc1ccc(-c2cc(-c3nc(-c4ccc(S(=O)(=O)C(C)C)cc4)cnc3N)on2)cc1 + COc1cc2c(cc1O)CCNC21CSC2c3c(OC(C)=O)c(C)c4c(c3C(COC1=O)N1C(O)C3Cc5cc(C)c(OC)c(O)c5C(C21)N3C)OCO4 | 394 | 331 | 248 | 30.7 | < 9.49 | 108 | 110 | 101 | 57.5 | 22.4 | 7.83 | 102 | 106 | 101 | 50.2 | 22.5 | 5.19 | 82 | 91.2 | 75.9 | viability, T/C [21]: 43.7%; viability, T/C [22]: 19.8%; viability, T/C [23]: 8.93%; viability, T/C [24]: 62.4%; viability, T/C [25]: 49.4%; viability, T/C [26]: 31.6%; viability, T/C [27]: 10.9%; viability, T/C [28]: 7.96%; viability, T/C [29]: 3.08%; viability, T/C [30]: 0.92%; viability, T/C [31]: 0.86%; viability, T/C [32]: 0.58%; viability, T/C [33]: 0.62%; viability, T/C [34]: 0.86%; viability, T/C [35]: 0.52% |
| O=C(c1cc(Cc2n[nH]c(=O)c3ccccc23)ccc1F)N1CCN(C(=O)C2CC2)CC1 | – | – | – | – | – | – | – | – | – | – | – | – | – | – | – | – | – | – | – | – | viability, T/C (compound 0.0949 µM): 97.2% and 87.7% and 107%; viability, T/C (compound 0.3 µM): 98.2% and 101% and 103%; viability, T/C (compound 0.949 µM): 101% and 97.9% and 94.2%; viability, T/C (compound 3 µM): 85.7% and 87.9% and 90.7%; viability, T/C (compound 9.49 µM): 61.5% and 67.3% and 70.3%; viability, T/C (compound 30 µM): 49.8% and 50.5% and 58.2%; IC50 (curve of compound): > 30000 nM |
